From PMC3358306 (PLoS ONE, 2012)

Biological target: T1, afRio1 (Rio1 kinase) (Archaeoglobus fulgidus, UniProt O28471)
T1 construct: full-length
Experiment: thermal shift (Thermofluor), Tm […] to […] °C
Format: binding

T1 sequence (O28471 whole entry): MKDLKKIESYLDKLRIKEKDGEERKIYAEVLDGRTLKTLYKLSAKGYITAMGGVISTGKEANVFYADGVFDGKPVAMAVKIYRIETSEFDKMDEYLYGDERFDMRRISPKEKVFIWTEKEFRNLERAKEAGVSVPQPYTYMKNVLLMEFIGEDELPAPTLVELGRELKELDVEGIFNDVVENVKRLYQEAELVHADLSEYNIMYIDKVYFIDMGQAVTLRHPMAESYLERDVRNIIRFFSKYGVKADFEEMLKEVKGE

NC(=O)c1cn([C@@H]2O[C@H](CO)[C@@H](O)[C@H]2O)c2ncnc(N)c12 [sangivamycin]
thermal shift (Thermofluor), Tm 76 to 82 °C: 82 °C
